Measurements taken from US10787432B2, “N-[(pyridyloxy)propanyl]benzamides” (Boehringer Ingelheim International GmbH, priority 2016, dated 2020).

Molecular target: T1, human orexin 2 receptor (Homo sapiens, UniProt O43614)
T1 construct: stably expressing the full-length human orexin 2 receptor; expressed in transfected cells; host or cells: CHO-K1 (CHO-K1/hOX2), co-expressing aequorin
T1 sequence (O43614 1-444): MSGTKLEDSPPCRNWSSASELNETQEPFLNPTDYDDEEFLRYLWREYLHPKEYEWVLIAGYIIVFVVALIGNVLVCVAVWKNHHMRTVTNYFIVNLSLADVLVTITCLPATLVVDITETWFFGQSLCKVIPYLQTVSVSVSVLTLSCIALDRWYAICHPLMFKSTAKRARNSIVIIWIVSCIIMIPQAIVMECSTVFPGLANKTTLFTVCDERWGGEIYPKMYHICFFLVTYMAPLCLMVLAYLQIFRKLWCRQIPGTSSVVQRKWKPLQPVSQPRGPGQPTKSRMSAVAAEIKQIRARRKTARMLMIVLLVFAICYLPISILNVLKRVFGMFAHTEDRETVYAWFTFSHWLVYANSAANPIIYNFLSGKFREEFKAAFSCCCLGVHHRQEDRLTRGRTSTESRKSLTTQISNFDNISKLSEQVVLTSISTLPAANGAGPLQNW
Experiment: Assay B: In vitro testing of OX2R potency: OX2R IP1 (HTRF, CHO-K1/hOX2 cells, Orexin A as agonist)
Format: cell-based
Conditions: not given
In short: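 Kb was derived from IC50 (4-parameter fit) by correcting for agonist level, using IP1 accumulation read by HTRF 665/615 ratio. Stimulus: 0.5 nM Orexin A for 60 min at 37 °C, following 15 min compound preincubation (8 points, 1% DMSO, LiCl-containing buffer pH 7.4) on hOX2R-expressing CHO-K1 cells.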

Compound	Kb
CCN(C(=O)c1cccc(F)c1-n1nccn1)[C@@H](C)COc1ccc(F)c(C(F)(F)F)n1 [Example 133]	101 nM

Same assay, conditions: Orexin A 0.5 nM

Compound	Kb
CCN(C(=O)c1c(F)cccc1-c1ncccn1)[C@@H](C)COc1ccc(C(F)(F)F)cn1 [Example 116]	45 nM
CCN(C(=O)c1ccccc1-c1ncccn1)[C@@H](C)COc1ccc(Br)cn1 [Example 117]	35 nM
CCN(C(=O)c1ccc(OC)cc1-c1ncccn1)[C@@H](C)COc1ccc(C(F)(F)F)cn1 [Example 118]	92 nM
CCN(C(=O)c1cc(F)ccc1-c1ncccn1)[C@@H](C)COc1ccc(Br)cn1 [Example 120]	43 nM
CCN(C(=O)c1ccc(C)cc1-c1nnc(C)o1)[C@@H](C)COc1ccc(OC(F)(F)F)cn1 [Example 121]	440 nM
CCN(C(=O)c1ccccc1-c1noc(C)n1)[C@@H](C)COc1ccc(C(F)(F)F)cn1 [Example 123]	34 nM
CCN(C(=O)c1cc(F)ccc1-n1cccn1)[C@@H](C)COc1ncc(C(F)(F)F)cc1F [Example 124]	1060 nM

Molecular target: T2, human Orexin 1 receptor (Homo sapiens, UniProt O43613)
T2 construct: stably expressing the full-length human Orexin 1 receptor; expressed in transfected cells; host or cells: CHO-K1 (CHO-K1/hOX1), co-expressing aequorin
T2 sequence (O43613 1-425): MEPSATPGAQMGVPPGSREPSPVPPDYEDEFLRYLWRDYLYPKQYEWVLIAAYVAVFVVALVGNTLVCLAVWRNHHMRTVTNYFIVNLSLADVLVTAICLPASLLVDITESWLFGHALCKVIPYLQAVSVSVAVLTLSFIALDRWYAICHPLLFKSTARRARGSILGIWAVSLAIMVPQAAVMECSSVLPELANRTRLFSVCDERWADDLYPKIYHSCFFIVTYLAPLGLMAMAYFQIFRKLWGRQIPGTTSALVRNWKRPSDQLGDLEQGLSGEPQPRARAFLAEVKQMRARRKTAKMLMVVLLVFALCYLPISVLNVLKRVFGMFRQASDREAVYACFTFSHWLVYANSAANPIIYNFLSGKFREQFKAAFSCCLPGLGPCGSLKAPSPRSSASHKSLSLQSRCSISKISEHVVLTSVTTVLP
Experiment: Assay A: In vitro testing of OX1R potency: OX1R IP1 (HTRF, CHO-K1/hOX1 cells, Orexin A as agonist)
Format: cell-based
Conditions: not given

Compound	Kb
CCN(C(=O)c1cccc(F)c1-n1nccn1)[C@@H](C)COc1ccc(F)c(C(F)(F)F)n1 [Example 133]	1.6 nM

Same assay, conditions: OX1R Kb at 0.5 nM Orexin A

Compound	OX2R Kb/OX1R Kb
CCN(C(=O)c1c(F)cccc1-c1ncccn1)[C@@H](C)COc1ccc(C(F)(F)F)cn1 [Example 116]	132
CCN(C(=O)c1ccccc1-c1ncccn1)[C@@H](C)COc1ccc(Br)cn1 [Example 117]	194
CCN(C(=O)c1cc(F)ccc1-c1ncccn1)[C@@H](C)COc1ccc(Br)cn1 [Example 120]	165
CCN(C(=O)c1ccc(C)cc1-c1nnc(C)o1)[C@@H](C)COc1ccc(OC(F)(F)F)cn1 [Example 121]	314
CCN(C(=O)c1cc(F)ccc1-n1cccn1)[C@@H](C)COc1ncc(C(F)(F)F)cc1F [Example 124]	278
CCN(C(=O)c1cccc(F)c1-n1nccn1)[C@@H](C)COc1ccc(F)c(C(F)(F)F)n1 [Example 133]	63

Same assay, conditions: OX1R Kb at 50 nM Orexin A

Compound	OX2R Kb/OX1R Kb
CCN(C(=O)c1c(F)cccc1-c1ncccn1)[C@@H](C)COc1ccc(C(F)(F)F)cn1 [Example 116]	205
CCN(C(=O)c1ccccc1-c1ncccn1)[C@@H](C)COc1ccc(Br)cn1 [Example 117]	318
CCN(C(=O)c1ccc(OC)cc1-c1ncccn1)[C@@H](C)COc1ccc(C(F)(F)F)cn1 [Example 118]	2875
CCN(C(=O)c1cc(F)ccc1-c1ncccn1)[C@@H](C)COc1ccc(Br)cn1 [Example 120]	358
CCN(C(=O)c1ccc(C)cc1-c1nnc(C)o1)[C@@H](C)COc1ccc(OC(F)(F)F)cn1 [Example 121]	293
CCN(C(=O)c1ccccc1-c1noc(C)n1)[C@@H](C)COc1ccc(C(F)(F)F)cn1 [Example 123]	200

Same assay, conditions: Orexin A 0.5 nM; read-out: OX1R Kb (Orexin A concentration used)

Compound	Kb
CCN(C(=O)c1c(F)cccc1-c1ncccn1)[C@@H](C)COc1ccc(C(F)(F)F)cn1 [Example 116]	0.34 nM
CCN(C(=O)c1ccccc1-c1ncccn1)[C@@H](C)COc1ccc(Br)cn1 [Example 117]	0.18 nM
CCN(C(=O)c1cc(F)ccc1-c1ncccn1)[C@@H](C)COc1ccc(Br)cn1 [Example 120]	0.26 nM
CCN(C(=O)c1ccc(C)cc1-c1nnc(C)o1)[C@@H](C)COc1ccc(OC(F)(F)F)cn1 [Example 121]	1.4 nM
CCN(C(=O)c1cc(F)ccc1-n1cccn1)[C@@H](C)COc1ncc(C(F)(F)F)cc1F [Example 124]	3.8 nM

Same assay, conditions: Orexin A 50 nM; read-out: OX1R Kb (Orexin A concentration used)

Compound	Kb
CCN(C(=O)c1c(F)cccc1-c1ncccn1)[C@@H](C)COc1ccc(C(F)(F)F)cn1 [Example 116]	0.22 nM
CCN(C(=O)c1ccccc1-c1ncccn1)[C@@H](C)COc1ccc(Br)cn1 [Example 117]	0.11 nM
CCN(C(=O)c1ccc(OC)cc1-c1ncccn1)[C@@H](C)COc1ccc(C(F)(F)F)cn1 [Example 118]	0.032 nM
CCN(C(=O)c1cc(F)ccc1-c1ncccn1)[C@@H](C)COc1ccc(Br)cn1 [Example 120]	0.12 nM
CCN(C(=O)c1ccc(C)cc1-c1nnc(C)o1)[C@@H](C)COc1ccc(OC(F)(F)F)cn1 [Example 121]	1.5 nM
CCN(C(=O)c1ccccc1-c1noc(C)n1)[C@@H](C)COc1ccc(C(F)(F)F)cn1 [Example 123]	0.17 nM

System: not listed separately
Experiment: Assay C: Metabolic stability in human liver microsomes (Human MST)
Format: in vitro ADME
Conditions: pooled human liver microsomes, pH 7.6; human liver microsomes 1 mg/mL, compound 1 μM, 37° C., NADPH; read-out: Human MST t1/2
In short: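 Test compound (1 μM) was incubated at 37 °C with pooled human liver microsomes (1 mg/mL protein) in 0.1 M TRIS pH 7.6 with 5 mM MgCl2, and reactions were started with 1 mM NADPH. Aliquots were quenched at several time points and parent compound was quantified by LC-MS/MS. t1/2 came from the slope of the semi-log concentration–time plot.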

Compound	half-life at 1 μM
CCN(C(=O)c1c(F)cccc1-c1ncccn1)[C@@H](C)COc1ccc(C(F)(F)F)cn1 [Example 116]	33 min
CCN(C(=O)c1ccccc1-c1ncccn1)[C@@H](C)COc1ccc(Br)cn1 [Example 117]	32 min
CCN(C(=O)c1ccc(OC)cc1-c1ncccn1)[C@@H](C)COc1ccc(C(F)(F)F)cn1 [Example 118]	15 min
CCN(C(=O)c1cc(F)ccc1-c1ncccn1)[C@@H](C)COc1ccc(Br)cn1 [Example 120]	76 min
CCN(C(=O)c1ccc(C)cc1-c1nnc(C)o1)[C@@H](C)COc1ccc(OC(F)(F)F)cn1 [Example 121]	15 min
CCN(C(=O)c1ccccc1-c1noc(C)n1)[C@@H](C)COc1ccc(C(F)(F)F)cn1 [Example 123]	23 min
CCN(C(=O)c1cc(F)ccc1-n1cccn1)[C@@H](C)COc1ncc(C(F)(F)F)cc1F [Example 124]	10 min
CCN(C(=O)c1cccc(F)c1-n1nccn1)[C@@H](C)COc1ccc(F)c(C(F)(F)F)n1 [Example 133]	21 min
